Tests used:
[1] = target: T1, GLP-1 R (Homo sapiens, UniProt P43220); assay: DiscoveRx LeadHunter cellular assay, arrestin activation, GLP-1 receptor; type: cell-based
Protocol: (§1) § means superagonist A further series of cellular assays were carried out using standard cellular assays (DiscoveRx, LeadHunter assays) using readout of cAMP stimulation or arrestin activation. Compounds were weighed precisely in an amount of approximately 1 mg and shipped to DiscoveRx for dilution and assay.

[2] = system: db/db mice; assay: In vivo assay in db/db mice (blood glucose, body weight, food consumption); settings: for db/db mice - Mean Blood Glucose, 10 hr: 10 hr after first dose; for db/db mice - Mean Blood Glucose, 24 hr: 24 hr after first dose; for db/db mice - Mean Blood Glucose, 48 hr: 48 hr after first dose
Protocol: The 60 female db/db B6BKS (D) Leprdb/J (strain 000697) mice for this study were approximately 8 to 9 weeks old at arrival (Jackson Laboratory, Bar Harbor, Me.). […] One group of 8 female mice served as the vehicle control and received the vehicle, 0.2% BSA in saline, pH 7.4. One additional group of 8 female mice received the positive control article, liraglutide, at a dose level of 50 nmoles/kg. The test articles, vehicle, and positive control article were administered on Day 1, at approximately 0, 7, and 24 hours during the study via subcutaneous injection at a dose volume of 6 mL/kg.
Clinical observations were conducted at receipt, prior to randomization, and daily from Days 1 to 5. Body weights were measured and recorded at receipt, prior to randomization, and daily from Days 1 to 5. Food consumption was measured and recorded daily from Days 1 to 5. Blood samples for glucose analysis were collected pretest (Day −3) and at 0, 1, 2, 4, 8, 10, 24, 48, 72, and 96 hours following the first dose on Day 1. At study termination all animals were euthanized and the carcasses were discarded without further evaluation.

[3] = target: T1, GLP-1 R; assay: DiscoveRx LeadHunter cellular assay, cAMP stimulation, GLP-1 receptor; type: cell-based
Protocol: as §1

[4] = target: T2, glucagon R (Homo sapiens, UniProt P47871); assay: DiscoveRx LeadHunter cellular assay, cAMP stimulation, glucagon receptor; type: cell-based
T2 construct: host or cells: CHO cells
Protocol: as §1

T1 sequence (P43220 24-463): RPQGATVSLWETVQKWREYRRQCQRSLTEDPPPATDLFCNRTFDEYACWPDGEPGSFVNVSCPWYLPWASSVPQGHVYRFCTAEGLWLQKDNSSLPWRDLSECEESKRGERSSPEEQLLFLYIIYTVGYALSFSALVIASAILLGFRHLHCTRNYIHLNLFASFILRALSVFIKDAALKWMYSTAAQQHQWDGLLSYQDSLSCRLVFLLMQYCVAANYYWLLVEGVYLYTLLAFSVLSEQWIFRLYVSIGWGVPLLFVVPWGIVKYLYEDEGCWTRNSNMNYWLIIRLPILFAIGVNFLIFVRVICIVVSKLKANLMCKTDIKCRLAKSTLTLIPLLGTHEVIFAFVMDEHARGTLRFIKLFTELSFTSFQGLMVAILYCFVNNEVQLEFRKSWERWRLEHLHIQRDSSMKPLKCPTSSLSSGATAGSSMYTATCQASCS
T2 sequence (P47871 26-477): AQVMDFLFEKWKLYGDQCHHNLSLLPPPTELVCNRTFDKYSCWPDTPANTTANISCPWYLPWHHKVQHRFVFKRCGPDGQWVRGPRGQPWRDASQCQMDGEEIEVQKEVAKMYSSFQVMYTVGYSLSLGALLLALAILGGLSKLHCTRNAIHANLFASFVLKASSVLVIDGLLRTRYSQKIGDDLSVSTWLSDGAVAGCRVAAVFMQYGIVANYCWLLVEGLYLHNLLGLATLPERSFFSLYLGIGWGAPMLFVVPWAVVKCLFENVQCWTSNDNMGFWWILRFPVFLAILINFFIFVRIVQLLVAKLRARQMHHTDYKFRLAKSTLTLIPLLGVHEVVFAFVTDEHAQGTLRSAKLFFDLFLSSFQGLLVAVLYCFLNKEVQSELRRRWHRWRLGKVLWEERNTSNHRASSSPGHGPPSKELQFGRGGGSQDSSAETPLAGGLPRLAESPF

Structure (SMILES)	EC50 [1]	db/db mice - Mean Blood Glucose, 0 hr ([2]; 250 nmole/kg s.c.)	db/db mice - Mean Blood Glucose, 10 hr ([2]; 250 nmole/kg s.c.)	db/db mice - Mean Blood Glucose, 24 hr ([2]; 250 nmole/kg s.c.)	db/db mice - Mean Blood Glucose, 48 hr ([2]; 250 nmole/kg s.c.)	EC50 [3]	EC50 [4]	db/db mice - Mean Blood Glucose, 0 hr ([2]; 300 nmole/kg s.c.)	db/db mice - Mean Blood Glucose, 10 hr ([2]; 300 nmole/kg s.c.)	db/db mice - Mean Blood Glucose, 24 hr ([2]; 300 nmole/kg s.c.)	db/db mice - Mean Blood Glucose, 48 hr ([2]; 300 nmole/kg s.c.)	glucose levels versus vehicle ([2]; db/db mice, 10 and 24 hours, high dose (300 nmoles/kg))	food consumption versus Liraglutide ([2]; db/db mice, Day 1, high dose (300 nmoles/kg))	body weight changes against vehicle ([2]; db/db mice, Days 2 and 3, liraglutide 50 nmoles/kg, test articles high dose (300 nmoles/kg))
CCCCCCCCCCCCO[C@@H]1O[C@H](C(=O)NCCCC[C@H](NC(=O)[C@@H](NC(=O)[C@H](Cc2ccccc2)NC(=O)[C@H](CCC(=O)O)NC(=O)[C@@H]2CCCCNC(=O)CC[C@H](NC(=O)[C@H](CC(=O)O)NC(=O)[C@H](CC(C)C)NC(=O)[C@H](Cc3ccc(O)cc3)NC(=O)[C@H](CCCCN)NC(=O)[C@H](CO)NC(=O)[C@H](Cc3ccc(O)cc3)NC(=O)[C@H](CC(=O)O)NC(=O)[C@H](CO)NC(=O)[C@@H](NC(=O)[C@H](Cc3ccccc3)NC(=O)[C@@H](NC(=O)CNC(=O)[C@H](CCC(N)=O)NC(=O)C(C)(C)NC(=O)[C@@H](N)Cc3c[nH]cn3)[C@@H](C)O)[C@@H](C)O)C(=O)N[C@@H](CCC(N)=O)C(=O)N[C@@H](C)C(=O)N[C@@H](C)C(=O)N2)[C@@H](C)CC)C(=O)N[C@@H](Cc2c[nH]c3ccccc23)C(=O)N[C@@H](CC(C)C)C(=O)N[C@@H](CC(C)C)C(=O)N[C@@H](CCC(N)=O)C(=O)N[C@H](C(N)=O)[C@@H](C)O)[C@@H](O)[C@H](O)[C@H]1O [EU-A993, His1-Aib2-Gln3-Gly4-Thr5-Phe6-Thr7-Ser8-Asp9-Tyr10-Ser11-Lys12-Tyr13-Leu14-Asp15-Glu*16-Gln17 Ala18-Ala19-Lys*20-Glu21-Phe22-Ile23-Lys(N-omega(1-dodecylbeta-D-glucuronyl))24-Trp25-Leu26-Leu27-Gln28-Thr29-NH2]	12.3 nM	503 mg/dL	305 mg/dL	324 mg/dL	426 mg/dL	< 0.05 nM	< 0.05 nM	–	–	–	–	–	–	–
CCCCCCCCCCCCCCO[C@@H]1O[C@H](C(=O)NCCCC[C@H](NC(=O)[C@@H](NC(=O)[C@H](Cc2ccccc2)NC(=O)[C@H](CCC(=O)O)NC(=O)[C@@H]2CCCCNC(=O)CC[C@H](NC(=O)[C@H](CC(=O)O)NC(=O)[C@H](CC(C)C)NC(=O)[C@H](Cc3ccc(O)cc3)NC(=O)[C@H](CCCCN)NC(=O)[C@H](CO)NC(=O)[C@H](Cc3ccc(O)cc3)NC(=O)[C@H](CC(=O)O)NC(=O)[C@H](CO)NC(=O)[C@@H](NC(=O)[C@H](Cc3ccccc3)NC(=O)[C@@H](NC(=O)CNC(=O)[C@H](CCC(N)=O)NC(=O)C(C)(C)NC(=O)[C@@H](N)Cc3c[nH]cn3)[C@@H](C)O)[C@@H](C)O)C(=O)N[C@@H](CCC(N)=O)C(=O)N[C@@H](C)C(=O)N[C@@H](C)C(=O)N2)[C@@H](C)CC)C(=O)N[C@@H](Cc2c[nH]c3ccccc23)C(=O)N[C@@H](CC(C)C)C(=O)N[C@@H](CC(C)C)C(=O)N[C@@H](CCC(N)=O)C(=O)N[C@H](C(N)=O)[C@@H](C)O)[C@@H](O)[C@H](O)[C@H]1O [EU-A994, His1-Aib2-Gln3-Gly4-Thr5-Phe6-Thr7-Ser8-Asp9-Tyr10-Ser11-Lys12-Tyr13-Leu14-Asp15-Glu*16-Gln17 Ala18-Ala19-Lys*20-Glu21-Phe22-Ile23-Lys(N-omega(1-tetradecylbeta-D-glucuronyl))24-Trp25-Leu26-Leu27-Gln28-Thr29-NH2]	10.2 nM	–	–	–	–	0.05 nM	< 0.05 nM	554 mg/dL	242 mg/dL	209 mg/dL	385 mg/dL	significantly different from vehicle	significantly different from Liraglutide	Significant body weight changes
